Assay results reported in a melting point compilation (Tetko et al.; mined from patent text by program, amines drawn as free bases though some values may be those of a salt).

SMILES | melting point [°C]
CSc1ccc(/C=C2/C(C)=C(C(C)N(O)C(N)=O)c3cc(F)ccc32)cc1 (stereo not given) | 150 to 152
CC1(C)CC(=O)Nc2c(CCN3CCN(c4nsc5ccc(F)cc45)CC3)cc(F)cc21 | 191
CC(=O)OC1CSC(Oc2ccc(-c3ccco3)nc2)C(OC(C)=O)C1OC(C)=O (stereo not given) | 133
Oc1nc2nc(SCc3ccccc3)nn2c(O)c1-c1c(F)cc(F)cc1F | 273
CC(=CC(=O)O)c1ccc(-c2ccc(F)cc2)cc1 | 58 to 60
COc1cccc(CN2Cc3cc(OC)c(O)cc3C(OC)C2)c1 (stereo not given) | 133 to 134
CC1CC(=O)N[C@@H]2CCc3cc(Cl)ccc3[C@@H]12 (stereo not given in full) | 71.5 to 73
CCOC(=O)C1(I)C=CC(c2ccccc2)=CC1 (stereo not given) | 105 to 106
Cc1[nH]n(-c2ccccc2)c(=O)c1C(=O)C(C)C | 61 to 62
CCOC1Nc2c(ccc(OC)c2OC(C)=O)C(=O)N2CCCC12 (stereo not given) | 143 to 146
CC(C)S(=O)(=O)ON=C(C#N)c1cccs1 | 80 to 82
COc1c(N)cccc1NC(=O)c1ccc(Br)cc1 | 111 to 112
CS(=O)(=O)Nc1cccc(Nc2nc(NC3CN4CCC3CC4)c3nc[nH]c3n2)c1 (stereo not given) | 200 to 204
CC(C)(C)c1ncc([C@H]2[C@H](C(=O)O)C2(C)C)cn1 (relative stereo) | 168 to 169
CCOC(=O)C(C)=NNc1ccc2[nH]c(=O)[nH]c2c1 | 220
CCCc1c(O)c(C(C)=O)cc(I)c1OCc1ccc(C(=O)O)cc1 | 167 to 168
Cc1cccc(-c2nc(C(C)C)[nH]c2-c2ccc(F)c(-c3ccc(CC4CNCCO4)cc3)c2)n1 (stereo not given) | 147 to 161
CC1(C(=O)N2C[C@@H](O)C[C@H]2C(=O)NC2(C#N)CC2)CC1 | 160
CC(C)(C)c1ncc(C(C(=O)O)C(C)(C)C)cn1 (single isomer, unassigned; (+)) | 222 to 224
CCCCP(=CC#N)(CCCC)CCCC | 131 to 132
CS(=O)(=O)Nc1cc(C(=O)O)c2c(c1)C(C(=O)O)CCN2 (stereo not given) | 188 to 190
COc1ccc(-n2nc(C)cc2NC2=NCCN2C(C)=O)cc1 | 129 to 131
COc1ccc(C(=O)C(=O)NC(C)C)s1 | 72 to 73

SMILES | melting point [°C]
CN1CCN(c2cccc3c2C[C@H](NC(=O)c2ccc(N4CCCCC4)cc2)CC3)CC1 | 196 to 198
CCCN(CCC)[C@@H]1Cc2c(Br)ccc3c2[C@@H](C1)CN3C(=O)c1ccccc1 | 93
CC1CCc2c(N3CCOCC3)c(F)cc3c(=O)c(C(=O)O)cn1c23 (stereo not given) | 279 to 280
Cc1ccc(C(=O)N[C@H]2CC[C@H](O)CC2)c(Nc2ccc3[nH]ncc3c2)n1 | > 280
CC(C)N1CC(C(=O)c2ccc(Cc3ccc(F)cc3)o2)=C(O)C1=O | 155 to 157
Cc1ncc(CO)n1-c1ccc([N+](=O)[O-])cc1C(=O)c1ccccc1F | 188 to 192
CCCCCCCCCCCCCSc1nnc(NC(=O)Nc2c(C(C)C)cccc2C(C)C)[nH]1 | 131 to 135
COC(=O)c1ccc(N=C2NCCN2)c(C)c1 | 193 to 194
CCOc1ccc(C=Nc2ccc(S(=O)(=O)NC(C)(C)C)cc2)cc1 | 188
O=C(Nc1cc2ncc(CN3CCCC3)cc2cc1F)c1ccc(-c2ccc(OC(F)(F)F)cc2)cc1 | 184 to 187
Cc1ccc(S(=O)(=O)N2CC(CO)(C(=O)O)C2)cc1 | 148 to 150
CC(CCl)(c1cc(Cl)nnc1Cl)C(Cl)Cl (stereo not given) | 82 to 85
COC(C)=CC(=O)Nc1cccc(C)c1 | 106
COC(=O)C(C)(C)c1ccc(OCCN)cc1 | 108 to 112
Cc1cccc2ncc(C(=O)NC3CC3)c(=O)n12 | 174 to 176
CNC(=C[N+](=O)[O-])NCc1cnc(Cl)s1 | 181
CC(=O)NC[C@H]1CN(c2ccc(N3CC(N(C)CCF)C3)c(F)c2)C(=O)O1 | 126 to 127
CCCC=C(c1ccccc1N1CCCCC1)C(C(N)=O)c1ccc(C(=O)OCC)cc1 (stereo not given) | 94 to 97
O=C(OCCC1CC1)c1ncn2c1[C@@H]1CCCN1C(=O)c1c(Cl)cccc1-2 | 163 to 164
CONC(=O)CC1=C(C)/C(=C/c2ccc(S(C)=O)cc2)c2ccc(F)cc21 (stereo not given) | 177 to 179
CCCC(=O)CC(=O)c1ccc(C2CCC(CC)CC2)cc1 (stereo not given) | 99
O=C(O)c1ccc(-n2cnnc2S)cc1 | > 300
COc1cc(Br)c(OC)c(CC(=O)O)c1 | 62 to 65

SMILES | melting point [°C]
O=C(NC1CC1)c1ccc(F)c(F)c1 | 104 to 108
COC(=O)c1cc(O)nn1Cc1ccc(Cl)cc1Cl | 222 to 223
Cc1ccc(C(=O)C(C#N)C#N)cc1 | 163
CNC(=O)c1c(N)cc(Cl)cc1Cl | 159 to 162
CCC(CC)C(=O)O[C@H]1C[C@H](O)C=C2C=C[C@H](C)[C@H](CC[C@@H]3C[C@@H](O)CC(=O)O3)[C@H]21 | 158
CCOC(=O)c1cnoc1-c1ccc(Cl)c(Br)c1 | 109 to 110
COC(=O)c1cc(OC)c(C(=O)OC)cc1OC | 141 to 143
NS(=O)(=O)C(F)(F)C(F)(F)C(F)(F)C(F)(F)C(F)(F)C(F)(F)F | 165 to 168
CC(=O)NC(=O)OC[C@]1(C)S[C@@H]2[C@H](NC(=O)Cc3ccccc3)C(=O)N2[C@H]1C(=O)OCc1ccc([N+](=O)[O-])cc1 | 83 to 85
Cc1ccc(S(=O)(=O)N(F)CC(C)(C)C)cc1 | 58 to 62.5
CN(N)c1ccc(-c2ccc(Cl)cc2)nn1 | 170 to 172
CCOC(=O)Cn1[nH]c(=O)c2ccccc2c1=O | 68 to 70
CN1CCC(C2(O)c3sccc3CCn3ccnc32)CC1 (stereo not given) | 177
COC(=O)c1cc(OC)c(N(C)C)c(OC)c1 | 71 to 72
CN1N=C(c2ccc(F)cc2)c2ccc(C#N)cc2CS1(=O)=O | 284 to 285
C=CCS(=O)(=O)c1cccnc1S(N)(=O)=O | 178
CC(C)NC(=O)NCCCOc1cc(CN2CCCCC2)ccn1 | 58 to 60
Cc1noc(NC(=O)N2CCN(c3nccc(-c4c(F)cccc4F)n3)CC2)c1C | 189 to 190
N#CCCNC(=O)c1n[nH]cc1NC(=O)c1ccc(C(F)(F)F)cc1 | 245 to 246
O=C1COc2cc(F)c(NC(=O)c3ccccc3[N+](=O)[O-])cc2N1 | > 248
O=C(O)c1c(-c2cnccn2)ssc1=S | 225
O=C(Nc1ccc(Cl)c(C(F)(F)F)c1)Nc1ccc(Cl)cc1-c1nnn[nH]1 | 245 to 247

Next, values leading:

melting point [°C] | SMILES
118 to 119 | Cc1ccc(CCCNCC(O)c2cc3ccccc3o2)cc1 (stereo not given)
81 to 84 | COc1ccc(CNc2nc(OCc3ccccn3)ncc2C(=O)c2ccccn2)cc1Cl
159 to 162 | COc1cc(/C=C/C(=O)CC(=O)c2ccccc2)ccc1O
127 to 130 | CCc1c(-c2ccc(OCc3ccccc3)cc2)c2c(COC)cc3c(OCc4ccccc4)ccc1n32
116 | CC(C)CNc1ccccc1CS(=O)c1nc2ncccc2[nH]1 (stereo not given)
227 to 228 | CCOC(=O)CCC1(NC(=O)c2ccc(Cl)c(Cl)c2)C(=O)Nc2ccccc21 (stereo not given)
68 to 70 | CCCc1oc2ccccc2c1C(=O)c1ccc(OCCBr)cc1
70.1 to 75.9 | CC1(C)OC[C@H](COc2nc(Oc3ccc(F)cc3F)nc3[nH]nc(-c4ccccc4Cl)c23)O1
138 to 140 | N#CC(Cc1c[nH]cn1)(c1ccc(Cl)cc1)c1cccc(Cl)c1 (stereo not given)
189 to 190 | CC(C)n1nc(-c2c(-c3ccccc3)nn3ccc(C(=O)N4CCCC4)cc23)ccc1=O
180 to 181 | COC(=O)c1ccc(Cc2cn(C)c3ccc(NC(=O)CC4CCCC4)cc23)c(OC)c1
257 to 259 | COc1ccc(-c2csc(Nc3ccc4ccccc4n3)n2)cc1OC
123 | COc1ccc([C@H](CC(=O)O)n2ccn(CCCc3ccc4c(n3)NCCC4)c2=O)cn1
115 to 116 | COC(=O)c1ccc2occ(-c3ccc(SC)c(Cl)c3)c2c1
103 to 105 | O=C(O)Cc1cccc(Oc2ccccc2Cl)c1O
176 to 178 | CCCn1nc2c(N)nc3ccccc3c2c1CCCc1cc(-c2ccccc2)no1

melting point [°C] | SMILES
310 to 312 | COc1cc2c3c(n(Cc4ccccc4)c(=O)c2cc1OC)-c1cc2c(cc1C3=O)OCO2
112 | COCCn1nc(-c2ccc(C(C)(C)C)cc2)cc1C(=O)NCc1ccc(OC(C)(C)C(=O)O)c(C)c1
58 to 60 | Cc1ccc(S(=O)(=O)OCCc2cccc3[nH]cc(S(=O)(=O)c4ccccc4)c23)cc1
134 to 136 | O=C1C2CCCC2=Nc2ccc(Cl)cc2N1Cc1ccccc1 (stereo not given)
54 to 55 | ClCCCCCOc1ccc(Br)c(CCOCc2ccccc2)c1
> 200 | c1ccc(CN2CC3(COc4cc5c(cc43)CCO5)c3c(-c4cccnc4)cccc32)nc1 (stereo not given)
194 to 195 | CN1CCN(c2cccc3c2C[C@H](NC(=O)c2ccc(C(=O)c4ccccc4)cc2)CC3)CC1
234 | O=C(c1cccnc1)N1CCC(c2nc(-c3cnc(-c4ccccc4)nc3)c[nH]2)CC1
172 | C=C(F)C[C@@H](C(=O)O)N(Cc1cccnc1)S(=O)(=O)c1ccc(OC)cc1
91 | CC(=O)Nc1nc(NC(C)CCc2ccccc2)nc(C(C)(C)F)n1 (stereo not given)
136 to 143 | COc1ccc(-c2cc(=Nc3c(C)cc(C)cc3C)n(C)c(NNC=O)n2)cc1OC
76 to 78 | O[C@@H](CCOc1cccc2ccccc12)c1ccccc1
151 to 153 | COC(=O)c1ccc2c(c1)c(=O)[nH]c(=O)n2CCCCN1CCC(OC(c2ccccc2)c2ccccc2)CC1
154 | COc1cc(OCCOc2ccc3ccccc3c2)cc(OC)c1C(=O)C(=O)O
267 to 268 | Cc1c(Br)c(=O)n(C2CCCC2)c2nc(Nc3ccccn3)ncc12
174 to 178 | Cn1c(=O)c(-c2nnn(Cc3cccc(OCc4ccc5ccccc5n4)c3)n2)cc2cc(OCCCN3CCN(Cc4ccc5ccccc5n4)CC3)ccc21
